Experimental data: patent US20050049197A1, “Induction of immune response against desired determinants” (Epimmune Inc., priority 1993, published 2005)
Values joined by “and” are separate entries in the source; they are usually repeats but may differ in a detail not shown here. Equal values may be shown once.

What was measured:
[1] = test system: P. yoelii sporozoites; assay: Inhibition of liver stage development assay (ILSDA), mouse hepatocytes infected with P. yoelii sporozoites; type: cell-based; conditions: sera of immunized mice, mouse hepatocytes
Method: (§1) In certain experiments, peptides were emulsified in complete Freund's adjuvant (CFA) and injected subcutaneously (S.C.) at the base of the tail in 100 μl volume containing 100 μg of peptide. Mice were boosted with 100 μg of peptide emulsified in 100 μl of incomplete Freund's adjuvant (IFA) 1 month later. Mice were bled just prior to boosting, and 2 weeks after boosting.
All cell culture reagents were obtained from quality Biological, Gaithersburg, Md. The slides were incubated overnight at 37° C. in a 5% CO2/95% air environment. The medium was changed the following day and fresh medium containing dexamethasone (7×10^−5) was added to the cultures.
(§2) The 17XNL (nonlethal) strain of P. yoelii or the NF54 strain of P. falciparum were used for murine and human hepatocyte in vitro infections, respectively.
(§3) Briefly, 25 μl of the serum samples, diluted to 2× their final concentration, were added to triplicate chamber-slide wells. P. yoeilli or P. falciparum sporozoites, 75,000/well, were then added in a volume of 25 μl to the mouse or human hepatocyte cultures respectively. The cultures were incubated for 3 h, then washed extensively with fresh medium to remove unattached sporozoites. The infected hepatocytes were then incubated for a further 2 (P. yoelii) or 5 days (P. falciparum) with the medium being changed each day of culture. The slides were fixed and immunostained with either a P. yoelii- or P. falciparum-specific monoclonal antibody. Schizonts were counted from the triplicate cultures and the percent inhibition determined as follows: control−test/control×100. Sera from mice injected with CFA (first dose) and IFA (second and third doses) served as the negative controls.

[2] = test system: P. falciparum sporozoites; assay: Inhibition of liver stage development assay (ILSDA), human hepatocytes infected with P. falciparum sporozoites; type: cell-based; conditions: sera of C57BL/6 mice immunized with peptide in CFA/IFA, final dilution 1:100
Method: as §1
Human hepatocytes were isolated from nontransplantable liver tissue donated for research. […] The hepatocytes were allowed to attach and spread overnight with the media being changed the following day.
as §2, §3

[3] = test system: DR5; parameters: species or system human; conditions: read-out: Binding Activity DR5, IC50
[4] = target: DR4w4 (Homo sapiens, UniProt P01903+P01911, A100K/A169T/F76Y/I96L/K127E/L162R/M171V/N62H/P40V/Q125Y/R42H/S133A/S149N/S66Y/V115G/V209L/W38E); assay: biochemical; type: binding
[5] = target: DRw53 (Homo sapiens, UniProt P01903+P13762); assay: biochemical; type: binding
[6] = test system: DR3; parameters: species or system human; conditions: read-out: Binding Activity DR3, IC50
[7] = test system: PBMC from normal individuals; assay: In vitro T cell proliferative responses of human PBMC ([3H]thymidine incorporation); type: cell-based; conditions: for AVERAGE S.I. / AVERAGE ΔMAX CPM: average of 5 donors; for X144 (Δmax cpm) / X144 S.I.: donor X144; for X162 (Δmax cpm) / X162 S.I.: donor X162; for X349 (Δmax cpm) / X349 S.I.: donor X349; for X372 (Δmax cpm) / X372 S.I.: donor X372; for X460 (Δmax cpm) / X460 S.I.: donor X460
[8] = test system: DQ3.1; parameters: species or system human; conditions: read-out: Binding Activity DQ3.1, IC50
[9] = test system: DR2w2b; parameters: species or system human; conditions: read-out: Binding Activity DR2wB2, IC50
[10] = target: DR1 (Homo sapiens, UniProt P01903+P01911, A100R/D57E/F55L/F60I/F76Y/I96L/L162R/M171V/P40L/Q125E/R42F/V115G/Y59C); assay: biochemical; type: binding
[11] = test system: P. yoelii 17XNL sporozoites; conditions: in vivo
[12] = test system: air-dried P. yoelii sporozoites; conditions: in vivo
[13] = target: IAk (Mus musculus, UniProt P01910+P06343); assay: biochemical

(NANP)4 [PfB]
% Inhibition ([1]; dilution 1:100): 13.4%
Mean schizonts/well + S.D. ([1]; dilution 1:100): 71 ± 7 schizonts/well
% Inhibition ([1]; dilution 1:200): 6.2%
Mean schizonts/well + S.D. ([1]; dilution 1:200): 76 ± 7 schizonts/well
% Inhibition [2]: 80% and 79.7%
Mean schizonts/well ± S.D. [2]: 15.6 ± 8.7 schizonts/well

CC(C)C[C@H](NC(=O)[C@@H](NC(=O)[C@H](CCCCN)NC(=O)[C@H](C)NC(=O)[C@H](C)NC(=O)[C@@H](NC(=O)[C@H](CC1CCCCC1)NC(=O)[C@H](CCCCN)NC(=O)[C@@H](C)N)C(C)C)[C@@H](C)O)C(=O)N[C@@H](CCCCN)C(=O)N[C@@H](C)C(=O)N[C@@H](C)C(=O)N[C@H](C)C(N)=O [965.14]
IC50 [3]: 3.4 nM
IC50 [4]: 7.4 nM
IC50 [5]: 52.8 nM
IC50 [6]: 781 nM
AVERAGE S.I. ([7]; 2nd Stimulation): 1.5
AVERAGE ΔMAX CPM ([7]; 2nd Stimulation): 5523 cpm
X144 (Δmax cpm) ([7]; 2nd Stimulation): 3570 cpm
X144 S.I. ([7]; 2nd Stimulation): 1.1
X162 (Δmax cpm) ([7]; 2nd Stimulation): 4655 cpm
X162 S.I. ([7]; 2nd Stimulation): 2.1
X349 (Δmax cpm) ([7]; 2nd Stimulation): 4421 cpm
X349 S.I. ([7]; 2nd Stimulation): 1.3
X372 (Δmax cpm) ([7]; 2nd Stimulation): 10608 cpm
X372 S.I. ([7]; 2nd Stimulation): 1.4
X460 (Δmax cpm) ([7]; 2nd Stimulation): 4365 cpm
X460 S.I. ([7]; 2nd Stimulation): 1.4
AVERAGE S.I. ([7]; 3rd Stimulation): 2
AVERAGE ΔMAX CPM ([7]; 3rd Stimulation): 10583 cpm
X144 (Δmax cpm) ([7]; 3rd Stimulation): 4319 cpm
X144 S.I. ([7]; 3rd Stimulation): 2.3
X162 (Δmax cpm) ([7]; 3rd Stimulation): 10734 cpm
X162 S.I. ([7]; 3rd Stimulation): 1.7
X349 (Δmax cpm) ([7]; 3rd Stimulation): 17849 cpm
X349 S.I. ([7]; 3rd Stimulation): 2
X372 (Δmax cpm) ([7]; 3rd Stimulation): 19140 cpm
X372 S.I. ([7]; 3rd Stimulation): 2.1
X460 (Δmax cpm) ([7]; 3rd Stimulation): 874 cpm
X460 S.I. ([7]; 3rd Stimulation): 2
IC50 [8]: > 10000 nM
IC50 [9]: 8 nM

CC(C)C[C@H](NC(=O)[C@@H](NC(=O)[C@H](Cc1c[nH]c2ccccc12)NC(=O)[C@H](C)NC(=O)[C@H](C)NC(=O)[C@@H](NC(=O)[C@H](CC1CCCCC1)NC(=O)[C@H](CCCCN)NC(=O)[C@@H](C)N)C(C)C)[C@@H](C)O)C(=O)N[C@@H](CCCCN)C(=O)N[C@@H](C)C(=O)N[C@@H](C)C(=O)N[C@H](C)C(N)=O [965.10]
IC50 [3]: 11.1 nM
IC50 [4]: 2.8 nM
AVERAGE S.I. ([7]; 2nd Stimulation): 3.9
AVERAGE ΔMAX CPM ([7]; 2nd Stimulation): 25767 cpm
X144 (Δmax cpm) ([7]; 2nd Stimulation): 11663 cpm
X144 S.I. ([7]; 2nd Stimulation): 1.8
X162 (Δmax cpm) ([7]; 2nd Stimulation): 20693 cpm
X162 S.I. ([7]; 2nd Stimulation): 7.9
X349 (Δmax cpm) ([7]; 2nd Stimulation): 22133 cpm
X349 S.I. ([7]; 2nd Stimulation): 3.5
X372 (Δmax cpm) ([7]; 2nd Stimulation): 44414 cpm
X372 S.I. ([7]; 2nd Stimulation): 3.2
X460 (Δmax cpm) ([7]; 2nd Stimulation): 29933 cpm
X460 S.I. ([7]; 2nd Stimulation): 3.3
AVERAGE S.I. ([7]; 3rd Stimulation): 11.5
AVERAGE ΔMAX CPM ([7]; 3rd Stimulation): 31002 cpm
X144 (Δmax cpm) ([7]; 3rd Stimulation): 33159 cpm
X144 S.I. ([7]; 3rd Stimulation): 14
X162 (Δmax cpm) ([7]; 3rd Stimulation): 34548 cpm
X162 S.I. ([7]; 3rd Stimulation): 11
X349 (Δmax cpm) ([7]; 3rd Stimulation): 38931 cpm
X349 S.I. ([7]; 3rd Stimulation): 3.5
X372 (Δmax cpm) ([7]; 3rd Stimulation): 36995 cpm
X372 S.I. ([7]; 3rd Stimulation): 15
X460 (Δmax cpm) ([7]; 3rd Stimulation): 11376 cpm
X460 S.I. ([7]; 3rd Stimulation): 15
IC50 [10]: 1.2 nM
IC50 [8]: 25 nM
IC50 [9]: 5.6 nM

CC(C)C[C@H](NC(=O)[C@@H](NC(=O)[C@H](Cc1ccc(O)cc1)NC(=O)[C@H](C)NC(=O)[C@H](C)NC(=O)[C@@H](NC(=O)[C@H](CC1CCCCC1)NC(=O)[C@H](CCCCN)NC(=O)[C@@H](C)N)C(C)C)[C@@H](C)O)C(=O)N[C@@H](CCCCN)C(=O)N[C@@H](C)C(=O)N[C@@H](C)C(=O)N[C@H](C)C(N)=O [965.09]
IC50 [3]: 5.4 nM
IC50 [5]: 86.4 nM
IC50 [6]: 250 nM
AVERAGE S.I. ([7]; 2nd Stimulation): 1.9
AVERAGE ΔMAX CPM ([7]; 2nd Stimulation): 12059 cpm
X144 (Δmax cpm) ([7]; 2nd Stimulation): 13693 cpm
X144 S.I. ([7]; 2nd Stimulation): 1.8
X162 (Δmax cpm) ([7]; 2nd Stimulation): 10710 cpm
X162 S.I. ([7]; 2nd Stimulation): 1.1
X349 (Δmax cpm) ([7]; 2nd Stimulation): 18079 cpm
X349 S.I. ([7]; 2nd Stimulation): 3.8
X372 (Δmax cpm) ([7]; 2nd Stimulation): 17813 cpm
X372 S.I. ([7]; 2nd Stimulation): 1.6
X460 (Δmax cpm) ([7]; 2nd Stimulation): 0 cpm
X460 S.I. ([7]; 2nd Stimulation): 1
AVERAGE S.I. ([7]; 3rd Stimulation): 4.1
AVERAGE ΔMAX CPM ([7]; 3rd Stimulation): 22599 cpm
X144 (Δmax cpm) ([7]; 3rd Stimulation): 14087 cpm
X144 S.I. ([7]; 3rd Stimulation): 2.6
X162 (Δmax cpm) ([7]; 3rd Stimulation): 35635 cpm
X162 S.I. ([7]; 3rd Stimulation): 5.2
X349 (Δmax cpm) ([7]; 3rd Stimulation): 31811 cpm
X349 S.I. ([7]; 3rd Stimulation): 5.5
X372 (Δmax cpm) ([7]; 3rd Stimulation): 29159 cpm
X372 S.I. ([7]; 3rd Stimulation): 4.4
X460 (Δmax cpm) ([7]; 3rd Stimulation): 2301 cpm
X460 S.I. ([7]; 3rd Stimulation): 2.9
IC50 [8]: > 10000 nM
IC50 [9]: 7.4 nM

G(QGPGAP)4 [PyB]
% Protected [11]: 12.5%
Infected/challenged [11]: 7/8
% Inhibition ([1]; dilution 1:100): 50%
Mean schizonts/well + S.D. ([1]; dilution 1:100): 41 + 3.8 schizonts/well
% Inhibition ([1]; dilution 1:200): 43.2%
Mean schizonts/well + S.D. ([1]; dilution 1:200): 46 + 4 schizonts/well
levels of antibodies against sporozoites and the PyCSP (immunogenicity, in words) [12]: poorly immunogenic
Mean schizonts/well ± S.D. [2]: 70 ± 14 schizonts/well

CC[C@H](C)[C@H](NC(=O)CNC(=O)[C@H](Cc1ccc(O)cc1)NC(=O)[C@H](CC(=O)O)NC(=O)[C@@H](NC(=O)[C@H](CO)NC(=O)CNC(=O)[C@H](CC(=O)O)NC(=O)[C@@H](NC(=O)[C@H](CC(N)=O)NC(=O)[C@@H](N)Cc1ccc(O)cc1)[C@@H](C)O)[C@@H](C)O)C(=O)N[C@@H](CC(C)C)C(=O)N[C@@H](CCC(N)=O)C(=O)N[C@H](C(=O)N[C@@H](CC(N)=O)C(=O)N[C@@H](CO)C(=O)N[C@@H](CCCNC(=N)N)C(=O)O)[C@@H](C)CC [HEL 46-61]
IC50 [13]: 20 nM
